From BigSolDB 2.1

O=C(O)C=CC(=O)O.OCCOCCN1CCN(C2=Nc3ccccc3Sc3ccccc32)CC1.OCCOCCN1CCN(C2=Nc3ccccc3Sc3ccccc32)CC1
solubility (mole fraction)
Conditions	in DMF	in acetone	in ethanol	in ethyl acetate	in isobutanol	in isopropanol	in methanol	in n-butanol	in water
283.15 K	0.00309	0.000106	0.000191	8.13e-05	6.85e-05	0.000107	0.000388	0.000154	4.98e-05
288.15 K	0.00369	0.000146	0.000244	9.87e-05	8.53e-05	0.000126	0.000453	0.000216	5.57e-05
293.15 K	0.00419	0.000178	0.000325	0.000142	0.000119	0.000168	0.000545	0.000292	6.73e-05
298.15 K	0.00491	0.000217	0.000408	0.000176	0.000162	0.000203	0.000696	0.000393	7.39e-05
303.15 K	0.00598	0.000251	0.000502	0.000218	0.000204	0.000251	0.000879	0.000502	7.99e-05
308.15 K	0.00684	0.000294	0.000636	0.000255	0.000251	0.000289	0.00121	0.000619	9.31e-05
313.15 K	0.0084	0.000345	0.000838	0.000306	0.000307	0.00036	0.00163	0.000792	0.000108
318.15 K	0.0102	0.000395	0.0011	0.000365	0.000395	0.000494	0.00202	0.000988	0.000131
323.15 K	0.0123	0.000475	0.00135	0.000411	0.000481	0.000716	0.00245	0.00118	0.000162
